The series in a line: pH-dependent solubility of the active ingredient. Conditions: acidic range.

`CC(=O)Oc1ccccc1C(=O)O` [Acetylsalicylic acid, acetylsalicylic acid]: the Solubility is reported as 0.45%.
